The record followed here is PubChem BioAssay (NCI).

What all share (test): growth of human tumour cells (NCI), 48 h
The test system of assay [1] is CAKI-1 renal.
The subject of assay [2] is HCC-2998 colon.
In assay [3] the test system is IGROV1 ovarian.
The subject of assay [4] is NCI-H460 lung.
In assay [5] the test system is OVCAR-3 ovarian.
The subject of assay [6] is SK-OV-3 ovarian.
The subject of assay [7] is SNB-19 CNS.
For assay [8], the system named is SW-620 colon.
The subject of assay [9] is UACC-62 melanoma.
The subject of assay [10] is T-47D breast.

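Following 48 hours of exposure in 96-well plates, responses at five concentrations were used to interpolate endpoints linearly. GI50 = concentration required for 50% inhibition of growth. TGI: total growth inhibition.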

For the compound `O=S(=O)(O)c1ccc([Se][Se]c2ccc(S(=O)(=O)O)cc2)cc1`, the TGI in assay [1], in assay [2], in assay [3], in [4], in [5] and in assay [6] was more than 100 µM in each case. Further, the TGI in [7], in assay [8] and in assay [9] was more than 100 µM each time.
In the case of `O=C1/C(=C/c2ccc(C(=O)O)cc2)CNC/C1=C\c1ccc(C(=O)O)cc1`, the TGI in assay [2], in assay [3], in assay [4], in [5], in assay [6] and in assay [9] was more than 100 µM each time.
As to `COc1ccc(C2[C@@H](Cl)C(=O)N2c2ccc(OC)cc2)cc1` (some centres not stated), the TGI in assay [1] was more than 100 µM; in assay [2], more than 100 µM; in assay [3], more than 100 µM; in [4] it was more than 100 µM; in assay [5] it was more than 100 µM; in assay [6], 53 µM. In addition, the TGI in [7], in assay [8] and in [9] was more than 100 µM in each case.
Consider `C/C(COc1ccccc1)=N\NC(N)=S`, for which the TGI in [1], in [2], in assay [3], in assay [5], in [6] and in assay [8] was more than 100 µM in each case. This compound had a TGI in assay [9] of more than 100 µM.
On to `CCCCCCCC(=O)[O-].N.N.N.N.N.[Co+3].[O-][Cl+3]([O-])([O-])[O-]`, for which the GI50 in assay [2], in assay [3], in assay [4], in [5], in assay [6] and in [7] was more than 100 µM each time. In addition, the GI50 in [8] and in assay [9] was more than 100 µM each time. For the same compound, the TGI in assay [2], in [3], in assay [4], in assay [5], in [6] and in assay [7] was more than 100 µM each time. The TGI in assay [8] and in [9] was more than 100 µM each time.
With `Oc1ccc(Cl)cc1N=Nc1c(O)ccc2ccccc12`, the TGI in assay [1], in assay [3], in assay [5], in [6], in assay [7] and in [8] was more than 100 µM throughout. Besides, in assay [9], the TGI is more than 100 µM.
For the compound `NC1=NN(c2ccccc2)C(=O)C1/C(=N\NC(=O)c1cc2ccccc2cc1O)C(=O)Nc1ccc(Cl)c(Cl)c1` (configuration not stated), the TGI was more than 100 µM in assay [1]; more than 100 µM in assay [2]; more than 100 µM in assay [3]; 85.5 µM in assay [4]; 54.8 µM in [5]; more than 100 µM in [7]. The TGI in assay [8] was more than 100 µM; in assay [9], 44.1 µM.
`[N-]=[N+]=NCCCn1c2c(c3ccccc3c1=O)C(=O)c1cc3c(cc1-2)OCO3`: the GI50 in assay [3] was 47.3 µM; in [4], 8.25 µM; in [5], more than 100 µM; in assay [8] it was more than 100 µM; in assay [9] it was 26.9 µM. In addition, the TGI in [3], in [4], in [5], in assay [8] and in [9] was more than 100 µM in each case.
As to `CN1c2cccc[c]2[Sn]([CH3])([CH3])[c]2ccccc21`, the GI50 in assay [1] is 0.01 µM; in [2] it was less than 0.01 µM; in assay [3], less than 0.0166 µM; in assay [4], less than 0.01 µM; in [5], less than 0.0115 µM; in [6], less than 0.0144 µM. Also, the GI50 is 0.0212 µM in assay [7], 0.019 µM in assay [8] and less than 0.0147 µM in assay [9]. In addition, the TGI in assay [1] is less than 0.0356 µM; in assay [2], 0.0247 µM; in [3], 0.14 µM; in assay [4], 0.0126 µM; in assay [5], less than 0.0224 µM; in [6], less than 0.0326 µM. Moreover, the results for the TGI in assay [7], in [8] and in assay [9] were 0.215 µM, 0.0675 µM and 0.113 µM, respectively.
As for `CC1O[C@@H]2CCCCC(=O)[C@]2(C)[C@H]1C` (some centres not stated), the TGI in assay [1], in [2], in assay [3], in [4], in [5] and in [6] was more than 100 µM each time. Also, the TGI in assay [7], in [8] and in [9] was more than 100 µM each time.
For the compound `CN1C(=O)CC(CC(=O)C2CCCCC2=O)CC1=O` (configuration not stated), the TGI in assay [1], in [2], in assay [3], in [4], in assay [5] and in assay [6] was more than 100 µM throughout. Further, the TGI in assay [7], in assay [8] and in assay [9] was more than 100 µM each time.
On to `OCC1OC(NO)C(O)C(O)C1O` (configuration not stated), for which the TGI in assay [1], in assay [2], in assay [3], in assay [4], in [5] and in assay [7] was more than 100 µM in each case. Further, the TGI in assay [8] and in [9] was more than 100 µM each time.
`CCCCCCCN(CCCCCCC)C(=N)c1ccc(OC)c2ccccc12`: the GI50 in assay [1] is 1.43 µM; in assay [3] it was 1.1 µM; in assay [5], 1.6 µM; in [6] it was 1.66 µM; in [7], 1.38 µM; in assay [8] it was 0.825 µM. Besides, the GI50 in [10] is 1.56 µM; in assay [9], 1.34 µM. The TGI worked out at 2.83 µM in assay [1]; 2.7 µM in assay [3]; 3.17 µM in assay [5]; 3.14 µM in assay [6]; 2.93 µM in [7]; 2.24 µM in assay [8]. The TGI in assay [10] is 3.33 µM; in assay [9], 2.77 µM.
